According to patent publication EP4667464A1 (Cyrus Therapeutics Inc., priority 2023, dated 2024):
Like-named read-outs stand apart in the source and are kept apart here.

Key:
[1] = target: T1, KRAS G12C::SOS1 (Homo sapiens, UniProt Q07889); assay: KRAS G12C::SOS1 protein-protein interaction (PPI) inhibition assay (HTRF); type: binding
T1 construct: purchased CISBIO 64KRASG12PEH
T1 sequence (Q07889 1-1333): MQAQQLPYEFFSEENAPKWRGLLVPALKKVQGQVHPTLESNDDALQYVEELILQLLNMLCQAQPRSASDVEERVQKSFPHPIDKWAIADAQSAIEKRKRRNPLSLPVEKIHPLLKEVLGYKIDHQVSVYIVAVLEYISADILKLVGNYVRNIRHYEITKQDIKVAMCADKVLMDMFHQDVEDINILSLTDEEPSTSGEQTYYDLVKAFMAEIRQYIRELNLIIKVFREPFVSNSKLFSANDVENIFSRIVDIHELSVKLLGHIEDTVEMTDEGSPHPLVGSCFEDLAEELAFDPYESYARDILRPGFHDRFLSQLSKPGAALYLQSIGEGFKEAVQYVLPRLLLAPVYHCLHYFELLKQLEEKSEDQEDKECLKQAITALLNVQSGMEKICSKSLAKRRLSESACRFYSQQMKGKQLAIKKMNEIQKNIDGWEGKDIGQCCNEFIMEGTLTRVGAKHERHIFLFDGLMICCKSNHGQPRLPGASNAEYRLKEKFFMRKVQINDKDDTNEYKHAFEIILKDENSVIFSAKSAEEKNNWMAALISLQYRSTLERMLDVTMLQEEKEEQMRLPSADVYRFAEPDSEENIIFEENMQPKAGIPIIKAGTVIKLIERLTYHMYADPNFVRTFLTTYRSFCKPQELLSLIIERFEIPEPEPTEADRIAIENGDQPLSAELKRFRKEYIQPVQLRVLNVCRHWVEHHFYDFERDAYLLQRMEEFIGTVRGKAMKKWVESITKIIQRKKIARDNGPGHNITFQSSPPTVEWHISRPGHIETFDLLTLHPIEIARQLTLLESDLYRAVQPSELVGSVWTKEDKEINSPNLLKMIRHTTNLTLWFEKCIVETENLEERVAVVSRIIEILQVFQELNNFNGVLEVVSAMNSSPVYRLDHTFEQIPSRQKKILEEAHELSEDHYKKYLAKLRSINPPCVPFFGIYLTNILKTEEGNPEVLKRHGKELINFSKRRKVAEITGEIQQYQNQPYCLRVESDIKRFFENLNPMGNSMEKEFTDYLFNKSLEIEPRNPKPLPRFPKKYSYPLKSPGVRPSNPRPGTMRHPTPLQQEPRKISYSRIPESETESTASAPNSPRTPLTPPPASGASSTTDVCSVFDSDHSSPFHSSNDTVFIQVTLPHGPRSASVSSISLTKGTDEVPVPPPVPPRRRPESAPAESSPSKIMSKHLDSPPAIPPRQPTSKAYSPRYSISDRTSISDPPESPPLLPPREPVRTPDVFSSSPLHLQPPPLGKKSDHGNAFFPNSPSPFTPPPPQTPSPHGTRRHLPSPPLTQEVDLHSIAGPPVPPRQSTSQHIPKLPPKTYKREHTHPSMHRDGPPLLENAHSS
Summary of the method: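 Compounds, at eight 3-fold dilutions from 3 µM, were mixed with GTP-loaded Tag1-KRAS G12C, Tag2-SOS1 and a terbium-cryptate donor plus XL665 acceptor antibody pair. After 2 h at room temperature, time-resolved FRET reported the KRAS–SOS1 interaction.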

[2] = target: T2, SOS1 (Homo sapiens, UniProt Q07889); assay: SOS-catalyzed nucleotide exchange assay (HTRF, SOS1-mediated GTP loading of KRAS G12D); type: biochemical
T2 construct: HIS-SOS1cat (160 nM; Cytoskeleton, US); His (N); purchased Cytoskeleton
T2 sequence (Q07889 564-1049 limits assumed): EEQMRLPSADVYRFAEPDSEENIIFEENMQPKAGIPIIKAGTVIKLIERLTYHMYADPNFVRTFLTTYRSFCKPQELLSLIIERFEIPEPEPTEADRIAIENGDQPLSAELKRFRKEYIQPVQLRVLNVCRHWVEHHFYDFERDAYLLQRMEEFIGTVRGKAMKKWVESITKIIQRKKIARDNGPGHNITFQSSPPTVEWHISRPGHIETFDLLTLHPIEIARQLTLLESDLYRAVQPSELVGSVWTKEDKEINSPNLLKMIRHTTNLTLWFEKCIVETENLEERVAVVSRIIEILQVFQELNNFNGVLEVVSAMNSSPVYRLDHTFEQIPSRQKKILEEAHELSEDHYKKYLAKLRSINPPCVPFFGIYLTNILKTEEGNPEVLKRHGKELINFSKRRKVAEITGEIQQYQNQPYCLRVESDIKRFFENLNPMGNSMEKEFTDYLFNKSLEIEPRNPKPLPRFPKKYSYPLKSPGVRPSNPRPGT

[3] = 8 concentrations from 3 µM, three replicates, read-out: KRAS G12C::SOS1 PPI
[4] = GST-KRAS G12D, HIS-SOS1cat, compound 128 pM to 10 µM, read-out: SOS-catalyzed nucleotide exchange assay

SMILES: C[C@@H](NC(=O)c1ccc(=O)n(-c2cncc(-c3cnnn3C3COC3)c2)n1)c1cccc(C(F)(F)F)c1F [Example 1-57, 1-[5-[1-(oxetan-3-yl)triazol-5-yl]-3-pyridyl]-6-oxo-N-[(1R)-1-[2-fluoro-3-(trifluoromethyl)phenyl]ethyl]pyridazine-3-carboxamide]
- IC50 [1, 3]: 50 to 150 nM
- IC50 [2, 4]: < 50 nM

SMILES: C[C@@H](NC(=O)c1ccc(=O)n(-c2cncc(-c3cnnn3[C@H]3CC3(F)F)c2)n1)c1cccc(C(F)(F)CO)c1F (single isomer, unassigned) [Example 25]
- IC50 [1]: < 50 nM
- IC50 [2]: < 50 nM

SMILES: CC(=O)N1CCC(n2nncc2-c2cncc(-n3nc(C(=O)N[C@H](C)c4cccc(C(F)(F)F)c4F)ccc3=O)c2)CC1 [Example 20-7, (R)-1-(5-(1-(1-acetylpiperidin-4-yl)-1H-1,2,3-triazol-5-yl)pyridin-3-yl)-N-(1-(2-fluoro-3-(trifluoromethyl)phenyl)ethyl)-6-oxo-1,6-dihydropyridazine-3-carboxamide]
- IC50 [1, 3]: < 50 nM
- IC50 [2, 4]: < 50 nM

SMILES: C[C@@H](NC(=O)c1cc(C2CCCCC2)c(=O)n(-c2cncc(-c3cnnn3C)c2)n1)c1cccc(C(F)(F)F)c1F [Example 1-65, N-{(R)-1-[2-fluoro-3-(trifluoromethyl)phenyl]ethyl}-5-cyclohexyl-1-[5-(1-methyl-1H-1,2,3-triazol-5-yl)-3-pyridyl]-6-oxo-1,6-dihydropyridazine-3-carboxamide]
- IC50 [1, 3]: 50 to 150 nM
- IC50 [2, 4]: > 150 nM

SMILES: C[C@@H](NC(=O)c1ccc(=O)n(-c2cncc(-c3cnnn3C3CN(C)C3)c2)n1)c1cccc(C(F)(F)F)c1F [Example 20, N-{(R)-1-[2-fluoro-3-(trifluoromethyl)phenyl]ethyl}-1-{5-[1-(1-methyl-3-azetidinyl)-1H-1,2,3-triazol-5-yl]-3-pyridyl}-6-oxo-1,6-dihydropyridazine-3-carboxamide]
- IC50 [1, 3]: < 50 nM
- IC50 [2, 4]: < 50 nM

SMILES: CCn1nccc1-c1cncc(-n2nc(C(=O)N[C@H](C)c3cccc(C(F)(F)CO)c3F)ccc2=O)c1 [Example 1-14, N-[(1R)-1-[3-(1,1-difluoro-2-hydroxy-ethyl)-2-fluoro-phenyl]ethyl]-1-[5-(2-ethylpyrazol-3-yl)-3-pyridyl]-6-oxo-pyridazine-3-carboxamide]
- IC50 [1, 3]: > 150 nM
- IC50 [2, 4]: > 150 nM

SMILES: [2H]c1cc(C(=O)N[C@H](C)c2cccc(C(F)(F)F)c2F)nn(-c2cncc(-c3cnnn3C)c2)c1=O [Example 1-38, N-{(R)-1-[2-fluoro-3-(trifluoromethyl)phenyl]ethyl}-1-[5-(1-methyl-1H-1,2,3-triazol-5-yl)-3-pyridyl]-6-oxo-1,6-dihydropyridazine-5-deuterio-3-carboxamide]
- IC50 [1, 3]: < 50 nM
- IC50 [2, 4]: 50 to 150 nM

SMILES: C[C@@H](NC(=O)c1cc(C(F)(F)F)c(=O)n(-c2cncc(-c3cnnn3C)c2)n1)c1cccc(C(F)(F)F)c1F [Example 1-69, N-[(R)-1-[2-fluoro-3-(trifluoromethyl)phenyl]ethyl]-1-[5-(1-methyl-1H-1,2,3-triazol-5-yl)-3-pyridyl]-6-oxo-5-(trifluoromethyl)-pyridazine-3-carboxamide]
- IC50 [1, 3]: < 50 nM
- IC50 [2, 4]: 50 to 150 nM

SMILES: Cc1cc(C(=O)N[C@H](C)c2cccc(C(F)(F)F)c2F)cn(-c2cncc(-c3cnnn3C)c2)c1=O [Example 1-21, (R)-N-(1-(2-fluoro-3-(trifluoromethyl)phenyl)ethyl)-3-methyl-5'-(1-methyl-1H-1,2,3-triazol-5-yl)-2-oxo-2H-[1,3'-bipyridine]-5-carboxamide]
- IC50 [1, 3]: < 50 nM
- IC50 [2, 4]: < 50 nM

SMILES: C[C@@H](NC(=O)c1cc(F)c(=O)n(-c2cncc(-c3cnnn3C)c2)c1)c1cccc(C(F)(F)F)c1F [Example 1-30, (R)-3-fluoro-N-(1-(2-fluoro-3-(trifluoromethyl)phenyl)ethyl)-5'-(1-methyl-1H-1,2,3-triazol-5-yl)-2-oxo-2H-[1,3'-bipyridine]-5-carboxamide]
- IC50 [1, 3]: > 150 nM
- IC50 [2, 4]: > 150 nM

SMILES: C[C@@H](NC(=O)c1ccc(=O)n(-c2cnnc(-c3cnnn3C)c2)n1)c1cccc(C(F)F)c1F [Example 5, N-[(1R)-1-[2-fluoro-3-(difluoromethyl)phenyl]ethyl]-1-[6-(3-methyltriazol-4-yl)pyridazin-4-yl]-6-oxo-pyridazine-3-carboxamide]
- IC50 [1]: > 150 nM
- IC50 [2]: > 150 nM

SMILES: C[C@@H](NC(=O)c1ccc(=O)n(-c2cncc(-c3cnnn3C3CNC3)c2)n1)c1cccc(C(F)(F)F)c1F [Example 19]
- IC50 [1, 3]: < 50 nM
- IC50 [2, 4]: < 50 nM

SMILES: C[C@@H](NC(=O)c1ccc(=O)n(-c2cc(-c3cnnn3C3CC3)cnc2F)n1)c1cccc(C(F)(F)CO)c1F [Example 6-8]
- IC50 [1]: < 50 nM
- IC50 [2]: < 50 nM

SMILES: C[C@@H](NC(=O)c1ccc(=O)n(-c2cncc(-c3cnnn3CCO)c2)n1)c1cccc(C(F)(F)F)c1F [Example 11, N-{(R)-1-[2-fluoro-3-(trifluoromethyl)phenyl]ethyl}-1-{5-[1-(2-hydroxyethyl)-1H-1,2,3-triazol-5-yl]-3-pyridyl}-6-oxo-1,6-dihydropyridazine-3-carboxamide]
- IC50 [1, 3]: 50 to 150 nM
- IC50 [2, 4]: < 50 nM

SMILES: C[C@@H](NC(=O)c1cc(C#N)c(=O)n(-c2cncc(-c3cnnn3C)c2)n1)c1cccc(C(F)(F)CO)c1F [Example 3, 5-cyano-N-[(1R)-1-[3-(1,1-difluoro-2-hydroxy-ethyl)-2-fluorophenyl]ethyl]-1-[5-(3-methyltriazol-4-yl)-3-pyridyl]-6-oxo-pyridazine-3-carboxamide]
- IC50 [1]: > 150 nM
- IC50 [2]: > 150 nM

SMILES: C[C@@H](NC(=O)c1cc(C(C)(C)O)c(=O)n(-c2cncc(-c3cnnn3C)c2)n1)c1cccc(C(F)(F)F)c1F [Example 1-59, (R)-N-(1-(2-fluoro-3-(trifluoromethyl)phenyl)ethyl)-5-(2-hydroxypropane-2-yl)-1-(5-(1-methyl-1H-1,2,3-triazol-5-yl)pyridin-3-yl)-6-oxo-1,6-dihydropyridazine-3-carboxamide]
- IC50 [1, 3]: 50 to 150 nM
- IC50 [2, 4]: < 50 nM

SMILES: CCn1nncc1-c1cc(-n2nc(C(=O)N[C@H](C)c3cccc(C(F)(F)F)c3F)ccc2=O)cnc1C [Example 1-27, 1-[5-(3-ethyltriazol-4-yl)-6-methyl-3-pyridyl]-N-[(1R)-1-[2-fluoro-3-(trifluoromethyl)phenyl]ethyl]-6-oxo-pyridazine-3-carboxamide]
- IC50 [1, 3]: 50 to 150 nM
- IC50 [2, 4]: 50 to 150 nM

SMILES: C[C@@H](NC(=O)c1ccc(=O)n(-c2cncc(-c3cnnn3C)c2)n1)c1cccc(C(F)(F)CO)c1Cl [Example 1-3, N-[(1R)-1-[2-chloro-3-(1,1-difluoro-2-hydroxy-ethyl)phenyl]ethyl]-1-[5-(3-methyltriazol-4-yl)-3-pyridyl]-6-oxo-pyridazine-3-carboxamide]
- IC50 [1, 3]: 50 to 150 nM
- IC50 [2, 4]: 50 to 150 nM

SMILES: C[C@@H](NC(=O)c1ccc(=O)n(-c2cncc(-c3cnnn3C3CCNCC3)c2)n1)c1cccc(C(F)(F)F)c1F [Example 20-4, N-[(1R)-1-[2-fluoro-3-(trifluoromethyl)phenyl]ethyl]-6-oxo-1-[5-[3-(4-piperidyl)triazol-4-yl]-3-pyridyl]pyridazine-3-carboxamide]
- IC50 [1]: 50 to 150 nM
- IC50 [2]: < 50 nM
